Patent US10364212B2 (F.I.S.—FABBRICA ITALIANA SINTETICI S.P.A., priority 2016, dated 2019)
“And” between values parts separate entries of the source, which are not always exact repeats. Equal entries are not always repeated. “Also recorded” adds a separate entry of the source.

How the values were obtained:
Format in all cases: physicochemical
[1] = Hygroscopicity by DVS (Dynamic Vapour Sorption); settings: for water uptake / moisture sorption: at 95% RH (0-95% RH); for hygroscopicity, comparison of batches 722 and 723: between 0 and 65% RH
Protocol: This is a gravimetric technique that measures how much water is absorbed or desorbed by a sample at different relative humidity (RH). At each RH, the sample mass must be allowed to reach gravimetric equilibrium (or surpassed time limit) before progressing to the next humidity level. Sorption and desorption isotherms will be performed at 25° C. over a range of 0-95% RH. The type of sorption isotherm is determined by the pore size and surface character of the material.

[2] = Kinetic solubility study at pH 4.5 (acetic acid/sodium acetate buffer), HPLC area
Protocol: (§1) The filtered solid was analyzed by XRPD.
Solubility at a slightly acid medium was determined at pH 4.5 buffer used was a mixture acetic acid/sodium acetate prepared according to USP specifications. […]

[3] = Kinetic solubility study in water, HPLC area of Enclomiphene peak;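 as to HPLC a/a: suspension in 24 mL Water and the filtered mother liquor analysed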;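 as to average HPLC a/a: suspension in 24 mL Water and the filtered mother liquor analysed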
Protocol: as §1
These HPLC conditions were used to perform solubility analysis.

SMILES	hygroscopicity, comparison of batches 722 and 723 ([1]; DVS)	Average a/a ([2]; pH 4.5, 0 min) [a/a]	HPLC a/a ([2]; pH 4.5, 0 min, replicate 1) [a/a]	HPLC a/a ([2]; pH 4.5, 0 min, replicate 2) [a/a]	Average a/a ([2]; pH 4.5, 15 min) [a/a]	HPLC a/a ([2]; pH 4.5, 15 min, replicate 1) [a/a]	HPLC a/a ([2]; pH 4.5, 15 min, replicate 2) [a/a]	Average a/a ([2]; pH 4.5, 45 min) [a/a]	HPLC a/a ([2]; pH 4.5, 45 min, replicate 1) [a/a]	HPLC a/a ([2]; pH 4.5, 45 min, replicate 2) [a/a]	Average a/a ([2]; pH 4.5, 90 min) [a/a]	HPLC a/a ([2]; pH 4.5, 90 min, replicate 1) [a/a]	HPLC a/a ([2]; pH 4.5, 90 min, replicate 2) [a/a]	Average a/a ([2]; pH 4.5, 180 min) [a/a]	HPLC a/a ([2]; pH 4.5, 180 min, replicate 1) [a/a]	HPLC a/a ([2]; pH 4.5, 180 min, replicate 2) [a/a]	average HPLC a/a ([3]; 0 min) [a/a]	HPLC a/a ([3]; 0 min, replicate 1) [a/a]	HPLC a/a ([3]; 0 min, replicate 2) [a/a]	HPLC a/a ([3]; 0 min, replicate 3) [a/a]	further results
CCN(CC)CCOc1ccc(/C(=C(/Cl)c2ccccc2)c2ccccc2)cc1.O=C(O)CC(O)(CC(=O)O)C(=O)O [Enclomiphene citrate having needle crystals] [Ethanamine, 2-[4-[(1E)-2-chloro-1,2-diphenylethenyl]phenoxy]-N,N-diethyl-, 2-hydroxy-1,2,3-propanetricarboxylate (1:1)]	identical	0	0	0	4135	3941	4330	4024	3978	4070	5109	4889	5329	5079	5098	5060	0	0	0	0	water uptake / moisture sorption ([1]; DVS, 25° C., listed as batch 723): 2.33 % weight and 2.3 % weight; solubility at pH 4.5 compared with Enclomiphene citrate having non-needle crystals ([2]; pH 4.5 buffer, listed as Enclomiphene citrate having needle shaped crystal habit): four times higher; average HPLC a/a ([3]; 15 min): 5152 a/a; HPLC a/a ([3]; 15 min, replicate 1): 4099 a/a; HPLC a/a ([3]; 15 min, replicate 2): 6104 a/a; HPLC a/a ([3]; 15 min, replicate 3): 3273 a/a; average HPLC a/a ([3]; 45 min): 4962 a/a; HPLC a/a ([3]; 45 min, replicate 1): 5206 a/a; HPLC a/a ([3]; 45 min, replicate 2): 5457 a/a; HPLC a/a ([3]; 45 min, replicate 3): 3225 a/a; average HPLC a/a ([3]; 90 min): 5334 a/a; HPLC a/a ([3]; 90 min, replicate 1): 5085 a/a; HPLC a/a ([3]; 90 min, replicate 2): 5426 a/a; HPLC a/a ([3]; 90 min, replicate 3): 2988 a/a; average HPLC a/a ([3]; 180 min): 4126 a/a; HPLC a/a ([3]; 180 min, replicate 1): 4120 a/a; HPLC a/a ([3]; 180 min, replicate 2): 5327 a/a; HPLC a/a ([3]; 180 min, replicate 3): 3208 a/a; solubility in water compared with Enclomiphene citrate having non-needle shaped crystal habit ([3]; listed as Enclomiphene citrate having needle shaped crystal habit): almost double; also recorded: almost two times
CCN(CC)CCOc1ccc(/C(=C(/Cl)c2ccccc2)c2ccccc2)cc1.O=C(O)CC(O)(CC(=O)O)C(=O)O [Enclomiphene citrate having non-needle crystals] [Ethanamine, 2-[4-[(1E)-2-chloro-1,2-diphenylethenyl]phenoxy]-N,N-diethyl-, 2-hydroxy-1,2,3-propanetricarboxylate (1:1), reference compound]	identical	0	0	0	1185	1294	1077	924	907	941	1095	1279	912	1052	1008	1096	0	0	0	0	water uptake / moisture sorption ([1]; DVS, 25° C., listed as batch 722): 6 % weight; moisture sorption ([1]; DVS, 25° C., between 0% and 65% RH): 2 % weight; water absorption at high humidity ([1]; humidity higher than 65% RH (FIG. 9)): absorbs relevant amounts of water; average HPLC a/a ([3]; 15 min): 2858 a/a; HPLC a/a ([3]; 15 min, replicate 1): 1819 a/a; HPLC a/a ([3]; 15 min, replicate 2): 3483 a/a; HPLC a/a ([3]; 15 min, replicate 3): 3273 a/a; average HPLC a/a ([3]; 45 min): 3226 a/a; HPLC a/a ([3]; 45 min, replicate 1): 3083 a/a; HPLC a/a ([3]; 45 min, replicate 2): 3370 a/a; HPLC a/a ([3]; 45 min, replicate 3): 3225 a/a; average HPLC a/a ([3]; 90 min): 2772 a/a; HPLC a/a ([3]; 90 min, replicate 1): 3229 a/a; HPLC a/a ([3]; 90 min, replicate 2): 2099 a/a; HPLC a/a ([3]; 90 min, replicate 3): 2988 a/a; average HPLC a/a ([3]; 180 min): 3265 a/a; HPLC a/a ([3]; 180 min, replicate 1): 2991 a/a; HPLC a/a ([3]; 180 min, replicate 2): 3597 a/a; HPLC a/a ([3]; 180 min, replicate 3): 3208 a/a
